# Tests used:
# [1] = system: rash caused by monoclonal EGFR inhibitors; assay: Treatment of rash caused by monoclonal EGFR inhibitors, topical ointment, rat model; format: in vivo; settings: SD rats
# Method: An Experiment to Verify the Treatment of Rash Caused by Monoclonal EGFR Inhibitors with Topical Administration of Compounds of the Present Application on a Rat Animal Model After the SD rats were fed and adapted for one week (about 200 g), the rats were divided into 10 rats per group. The hair on the back of rats was gently removed with an electric razor one day before the experiment, and then an administration test was carried out. The EGFR monoclonal antibody solution diluted with normal saline was injected via tail vein twice a week, and the injection rate and time were shown in Table 4; the treatment experiment was started at the time point when rats developed a rash after continuous administration for 1-2 weeks. The experiments were divided into the administration group with the compound of the present application and the control group. During the treatment experiment, monoclonal antibody EGFR inhibitors were injected twice a week. the administration group applied the compound ointment of the present application on the back (about 3 cm*3 cm) of rats every day, and the control group applied blank matrix ointment on the back (about 3 cm*3 cm); after application, the rats were fixed with a fixed cyclinder for about 4 hours, and then the rats were released, with the residual drug at the application site wiped off with clean water, and put back into the cage. […] Table 4 lists the animal experiment combinations of monoclonal antibody EGFR inhibitors and the compound ointment of the present application, as well as the corresponding experiment results (wherein, the value in the control rate column=the number of rats whose rash is milder in the administration group than that in the control group/the total number of rats in the administration group×100%).
# [2] = system: rash caused by small molecule EGFR inhibitors; assay: Treatment of rash caused by small molecule EGFR inhibitors, topical ointment, rat model; format: in vivo, SD rats
# Method: An Experiment to Verify the Treatment of Rash Caused by Small Molecule EGFR Inhibitors with Topical Administration of Compounds of the Present Application on a Rat Animal Model After the SD rats were fed and adapted for one week (about 200 g), the rats were divided into 10 rats per group. The hair on the back of rats was gently removed with an electric razor one day before the experiment, and then an intragastric administration test was carried out. EGFR inhibitors were dissolved in a sterile aqueous solution, and diluted with PBS buffer; the amount of each gavage was not more than 2 mL, and the dosage was shown in Table 3. […] The experiments were divided into the administration group with the compound of the present application and the control group. During the treatment experiment, EGFR inhibitors were intragastrically administered continuously every day. After the gavage, the administration group applied the compound ointment of the present application on the back (about 3 cm*3 cm) of rats, and the control group applied blank matrix ointment on the back (about 3 cm*3 cm); after application, the rats were fixed with a fixed cyclinder for about 4 hours, and then the rats were released, with the residual drug at the application site wiped off with clean water, and put back into the cage. The frequency of intragastric administration of EGFR inhibitors is shown in Table 3, but the compounds of the present application and blank ointment are applied only once a day. […] Table 3 lists the animal experiment combinations of various small molecule EGFR inhibitors and the compound ointment of the present application, as well as the corresponding experiment results (wherein, the value in the control rate column=the number of rats whose rash is milder in the administration group than that in the control group/the total number of rats in the administration group×100%).
# [3] = system: rash caused by monoclonal EGFR inhibitors; assay: Prevention of rash caused by monoclonal EGFR inhibitors, topical ointment, rat model; format: in vivo, SD rats
# Method: An Experiment to Verify the Prevention of Rash Caused by Monoclonal EGFR Inhibitors with Topical Administration of Compounds of the Present Application on a Rat Animal Model After the SD rats were fed and adapted for one week (about 200 g), the rats were divided into 10 rats per group. The hair on the back of rats was gently removed with an electric razor one day before the experiment, and then an administration test was carried out. The experiments were divided into the administration group with the compound of the present application and the control group. The EGFR monoclonal antibody solution diluted with normal saline was injected via the tail vein twice a week, and the injection rate and time are shown in Table 2. After injection, the administration group applied the compound ointment of the present application on the backs (about 3 cm*3 cm) of rats every day, and the control group applied blank matrix ointment (about 0.5 g) to the backs (about 3 cm*3 cm) of rats every day. After drug application, the rats were fixed with a fixed cyclinder for 4 h; after that, the rats were released and the residual drug at the application site was wiped off with clear water. Monoclonal antibody EGFR inhibitors were injected via the tail vein twice a week, and the compound of the present application and blank ointment were applied once a day until obvious rashes appeared in the control group. […] Table 2 lists the animal experiment combinations of various monoclonal antibody EGFR inhibitors and the compound ointment of the present application, as well as the corresponding experiment results (wherein, the value in the control rate column=the number of rats whose rash is milder in the administration group than that in the control group/the total number of rats in the administration group×100%).
# [4] = system: skin contact delayed-type hypersensitivity; assay: Skin contact delayed-type hypersensitivity (DNFB) response test, ear swelling, topical ointment; format: in vivo; settings: topical to ears, DNFB DTH, Balb/c mice, compared to blank ointment
# Source text: Therapeutic Effect of Topical Administration of Compounds of the Present Application in Skin Contact Delayed-Type Hypersensitivity Response Test in Mice Delayed-type hypersensitivity (DTH) response in mouse skin is considered to be an effective model for clinical contact dermatitis and other T cell-mediated cutaneous immune diseases, such as atopic dermatitis and psoriasis. The DTH in mice shares the common features with these cutaneous immune diseases, including immunoinfiltration with an increase of inflammatory cytokines and hyperproliferation of keratinocytes. Balb/c mice were sensitized by topical administration of the antigen 2,4-dinitrofluorobenzene (DNFB) to the shaved back of mice on Days 0 and 1. On Day 5, the thickness of the ears was measured using an engineering micrometer. The measurement result was recorded and used as a baseline. The animals were then challenged with a total of 20 μL of DNFB (10 μL for the internal pinna and 10 μL for the external pinna) topically dosed to both ears at a concentration of 0.2%. The ears were measured again 24-72 hours after challenge. The compound ointment of the present application was applied topically to the ears of the animals throughout the allergic and challenge periods (Days −1˜7) or before or throughout the challenge period (generally Days 4˜7). The therapeutic effect was expressed by a reduction in ear swelling compared to that of the blank ointment. The compound causing a reduction of 20% or more was considered effective. Table 5 lists the skin contact delayed-type hypersensitivity experiment results in mice treated with the compound of the present application.
# [5] = Cetuximab 102 mg/kg twice a week via tail vein, ointment 5.0 wt%, 10 days of drug application
# [6] = EAI045 80 mg/kg once a day, 8 dosing modelling days, ointment 1.0 wt% once a day
# [7] = EAI045 80 mg/kg once a day, 8 dosing modelling days, ointment 10.0 wt% once a day
# [8] = Osimertinib 60 mg/kg twice a day, 7 dosing modelling days, ointment 0.5 wt% once a day
# [9] = Osimertinib 60 mg/kg twice a day, 7 dosing modelling days, ointment 5.0 wt% once a day
# [10] = Cetuximab 100 mg/kg twice a week via tail vein, ointment 0.2 wt% once a day, 10 days
# [11] = Panitumumab 10 mg/kg twice a week via tail vein, ointment 5.0 wt% once a day, 14 days
# [12] = Afatinib 40 mg/kg once a day, 6 dosing modelling days, ointment 5.0 wt% once a day
# [13] = EAI045 80 mg/kg once a day, 8 dosing modelling days, ointment 5.0 wt% once a day
# [14] = Osimertinib 60 mg/kg twice a day, 7 dosing modelling days, ointment 1.0 wt% once a day
smiles,measurement,setting,value
C[C@@H]1CN(C(=O)CC#N)[C@@]12CCN(c1ncnc3c1ccn3C(=O)N(C)CCOC(=O)C1CCCCC1)C2 [Compound A28],Control Rate,"[1]; Cetuximab 102 mg/kg twice a week via tail vein, ointment 0.3 wt%, 10 days of drug application",40%
same,Control Rate,[1]; [5],70%
same,Control Rate,"[1]; Panitumumab 6 mg/kg twice a week via tail vein, ointment 2.0 wt%, 8 days of drug application",60%
same,Control Rate,"[1]; Panitumumab 6 mg/kg twice a week via tail vein, ointment 10.0 wt%, 8 days of drug application",100%
same,Control Rate,"[2]; BPI-7711 60 mg/kg once a day, 6 dosing modelling days, ointment 3.0 wt% once a day",80%
same,Control Rate,"[2]; Dacomitinib 10 mg/kg once a day, 5 dosing modelling days, ointment 0.2 wt% once a day",30%
same,Control Rate,"[2]; Dacomitinib 10 mg/kg once a day, 5 dosing modelling days, ointment 2.0 wt% once a day",60%
same,Control Rate,"[2]; Dacomitinib 10 mg/kg once a day, 5 dosing modelling days, ointment 5.0 wt% once a day",80%
same,Control Rate,"[2]; Dacomitinib 10 mg/kg once a day, 5 dosing modelling days, ointment 10.0 wt% once a day",60%
same,Control Rate,[2]; [6],40%
same,Control Rate,[2]; [7],100%
same,Control Rate,"[2]; Gefitinib 80 mg/kg twice a day, 10 dosing modelling days, ointment 1.0 wt% once a day",30%
same,Control Rate,"[2]; Gefitinib 80 mg/kg twice a day, 10 dosing modelling days, ointment 5.0 wt% once a day",30%
same,Control Rate,"[2]; Larotinib 20 mg/kg once a day, 6 dosing modelling days, ointment 3.0 wt% once a day",40%
same,Control Rate,[2]; [8],20%
same,Control Rate,[2]; [9],60%
same,Control Rate,[3]; [10],30%
same,Control Rate,"[3]; Cetuximab 100 mg/kg twice a week via tail vein, ointment 5.0 wt% once a day, 10 days",70%
same,Control Rate,"[3]; Panitumumab 10 mg/kg twice a week via tail vein, ointment 0.2 wt% once a day, 14 days",45%
same,Control Rate,[3]; [11],100%
C[C@@H]1CN(C(=O)CC#N)[C@@]12CCN(c1ncnc3c1ccn3C(=O)N(C)CCOC(=O)c1ccn[nH]1)C2 [Compound A31],Control Rate,"[2]; Afatinib 40 mg/kg once a day, 6 dosing modelling days, ointment 0.1 wt% once a day",10%
same,Control Rate,"[2]; Afatinib 40 mg/kg once a day, 6 dosing modelling days, ointment 1.0 wt% once a day",60%
same,Control Rate,"[2]; Afatinib 40 mg/kg once a day, 6 dosing modelling days, ointment 3.0 wt% once a day",70%
same,Control Rate,[2]; [12],90%
same,Control Rate,"[2]; Afatinib 40 mg/kg once a day, 6 dosing modelling days, ointment 10.0 wt% once a day",90%
same,Control Rate,"[2]; EAI045 80 mg/kg once a day, 8 dosing modelling days, ointment 0.1 wt% once a day",20%
same,Control Rate,[2]; [13],70%
same,Control Rate,[2]; [7],90%
same,Control Rate,"[2]; Gefitinib 80 mg/kg twice a day, 10 dosing modelling days, ointment 0.3 wt% once a day",20%
same,Control Rate,"[2]; Gefitinib 80 mg/kg twice a day, 10 dosing modelling days, ointment 3.0 wt% once a day",40%
same,Control Rate,"[2]; Gefitinib 80 mg/kg twice a day, 10 dosing modelling days, ointment 10.0 wt% once a day",90%
same,Control Rate,[2]; [8],40%
same,Control Rate,[2]; [14],60%
same,Control Rate,[2]; [9],70%
same,Reduction Rate of Ear Swelling,[4]; ointment 1.0 wt%,16%
same,Reduction Rate of Ear Swelling,[4]; ointment 5.0 wt%,28%
CN(CCOC(=O)C1CCCCC1)C(=O)n1ccc2c(-c3cnn(C4(CC#N)CN(C5CCN(C(=O)c6ccnc(C(F)(F)F)c6F)CC5)C4)c3)ncnc21 [Compound A36],Control Rate,"[2]; Afatinib 40 mg/kg once a day, 6 dosing modelling days, ointment 0.5 wt% once a day",20%
same,Control Rate,[2]; [12],60%
same,Control Rate,"[2]; BPI-7711 60 mg/kg once a day, 6 dosing modelling days, ointment 5.0 wt% once a day",30%
same,Control Rate,"[2]; EAI045 80 mg/kg once a day, 8 dosing modelling days, ointment 0.5 wt% once a day",20%
same,Control Rate,[2]; [13],40%
same,Control Rate,"[2]; Larotinib 20 mg/kg once a day, 6 dosing modelling days, ointment 5.0 wt% once a day",60%
same,Control Rate,[2]; [14],30%
same,Control Rate,"[2]; Osimertinib 60 mg/kg twice a day, 7 dosing modelling days, ointment 10.0 wt% once a day",50%
same,Reduction Rate of Ear Swelling,[4]; ointment 1.0 wt%,29%
same,Reduction Rate of Ear Swelling,[4]; ointment 5.0 wt%,34%
C[C@@H]1CN(C(=O)CC#N)[C@@]12CCN(c1ncnc3c1ccn3C(=O)N(C)CCOC(=O)C1CC1)C2 [Compound A27],Control Rate,"[1]; Cetuximab 102 mg/kg twice a week via tail vein, ointment 1.0 wt%, 10 days of drug application",30%
same,Control Rate,[1]; [5],80%
same,Control Rate,"[1]; Panitumumab 6 mg/kg twice a week via tail vein, ointment 0.1 wt%, 8 days of drug application",60%
same,Control Rate,"[1]; Panitumumab 6 mg/kg twice a week via tail vein, ointment 3.0 wt%, 8 days of drug application",90%
same,Control Rate,[2]; [6],60%
same,Control Rate,"[2]; EAI045 80 mg/kg once a day, 8 dosing modelling days, ointment 3.0 wt% once a day",80%
same,Control Rate,"[2]; Osimertinib 60 mg/kg twice a day, 7 dosing modelling days, ointment 0.2 wt% once a day",40%
same,Control Rate,"[2]; Osimertinib 60 mg/kg twice a day, 7 dosing modelling days, ointment 4.0 wt% once a day",100%
same,Control Rate,[3]; [10],20%
same,Control Rate,"[3]; Cetuximab 100 mg/kg twice a week via tail vein, ointment 3.0 wt% once a day, 10 days",40%
same,Control Rate,"[3]; Panitumumab 10 mg/kg twice a week via tail vein, ointment 1.0 wt% once a day, 14 days",45%
same,Control Rate,[3]; [11],70%

# — US20250188088A1, “COMPOUND AND USE THEREOF” (ONQUALITY PHARMACEUTICALS CHINA LTD., priority 2022, published 2025)
